Experimental data as given in publication PMC5225183, “Fingerprinting of neurotoxic compounds using a mouse embryonic stem cell dual luminescence reporter assay” (Archives of Toxicology, 2016).
Where two headings read alike, the source gives them in different places. Marks after values point to notes of the source that are not given here.

Legend:
[1] = tested on: ESCs and ESC-derived neurons; assay: Dual luminescence reporter test system, all readouts in ESCs and ESC-derived neurons
Text: Fig. 1 Synopsis of experimental protocols. The impact of compounds on neural promoter activity (FLuc, Firefly Luciferase under the control of the Tα1 promoter), general promoter activity (RLuc, Renilla Luciferase under the control of the EF1α promoter), and amount of DNA (PI, propidium iodide fluorescence in cell homogenates) was investigated in undifferentiated mouse embryonic pluripotent stem cells (ESCs) and on ESC-derived neurons. Arrows indicate the time of measurement of the three parameters. a Protocol for testing compounds effects on ESCs. CGR8-2Luc cells were plated on gelatin-coated 96-well plates in maintenance medium (BHK21 medium containing 10 % FCS, L-glutamine, NEAA, P/S, and LIF). Twenty-four hours later, cells were exposed to compounds for forty-eight hours. b Protocol for testing compounds on ESC-derived neurons.
(§1) At day 5, cells were then re-plated (3 × 10^5 cells/cm^2) on polyornithine-coated 96-well plates in N2 medium containing DMEM, N2 supplement, penicillin/streptomycin, and 10 ng/ml basic human fibroblast growth factor (bFGF) (Invitrogen). […] To assess toxicity of compounds on undifferentiated pluripotent stem cells (ESCs), CGR8-2Luc cells were plated at 45,000 cells/cm^2 on 0.1 % gelatin-coated dishes in BHK21 medium, supplemented with 10 % fetal calf serum, L-glutamine, non-essential amino acids, penicillin/streptomycin, and leukemia inhibitory factor (LIF). After 24 h, compounds were added and incubated for 48 h, before luciferase expression and PI fluorescence were analyzed. In all experiments, methylmercury was used as a positive control at a concentration of 5 µM.
Luciferase activities were measured with a Dual-Luciferase™ Reporter system kit. CGR8-2Luc ES cells were lysed in 96-well plates according to the manufacturer’s instructions. Luminescence measurements were performed on a Fluostar Optima reader. Luminescence counts were expressed as percentage of promoter activity normalized by comparison with the control wells treated by DMSO. […] parameters were measured in homogenates of ESCs and in ESC-derived neurons: (1) FLuc, reflecting the activity of early neural promoter Tα1. FLuc increases during neuronal differentiation. Many neurotoxic compounds may affect FLuc expression, either through impact on neuronal differentiation, through changes of neuronal gene expression, or through killing of neurons.
(§2) PI was added to cell homogenates after the luciferase test, at a final concentration of 50 µg/ml and incubated for 2 h. After incubation, fluorescence intensity was measured on a Flexstation 3 microplate reader (Excitation: 544 nm ± 15 nm; Emission: 620 nm ± 15 nm). Results are expressed as percentage of control. Propidium iodide (PI) measures total DNA content as an approximation of the cell number. A decrease in PI fluorescence was interpreted as a decrease in cell number and therefore throughout the text referred to as cytotoxicity.
To describe the shape of different concentration–response curves, arbitrary scores were assigned as follows: 0 for “no change,” 1 for “down-stroke,” 2 for “bimodal profile,” and 3 for “up-stroke” (Fig. S1). A curve was classified as “down-stroke” or “up-stroke” if the change in response values comparative to control was statistically significant (p value <0.05, one-way ANOVA with post hoc Dunnett) with an additional requirement of a 30 % decrease or increase of mean response value relative to controls, respectively. If the absolute change in mean response values was below 30 % the curve was classified as “no change.” A curve was classified as “bimodal” if first up-stroke and subsequently down-stroke was observed.

EF1α promoter = tested on: EF1α promoter
Text: (§3) Dual luciferase expressing CGR8-2Luc cells were obtained by transduction of mouse ESC CGR8 cells with the 2K7 EFS-Renilla Luciferase (RLuc)/Talpha1-Firefly Luciferase (FLuc) vector as previously described (Suter et al. [2006], [2009]); EFS corresponds to the short promoter of the eukaryotic translation elongation factor 1 alpha (EF1α), and Talpha1 to the Tubulin α1 (Tα1) promoter. Tα1 was selected as a promoter active in neurons, including early stages of neural differentiation. EF1α was originally selected to function as a constitutive promoter; however, it responds to cellular differentiation as well as to various chemicals, as previously shown (Kern et al. [2013]). Cells were cultured on 0.1 % gelatin-coated dishes in CGR8-2luc maintenance medium: BHK21 medium, supplemented with 10 % fetal calf serum, L-glutamine, non-essential amino acids, penicillin/streptomycin, and leukemia inhibitory factor (LIF). CGR8 cells were grown in a feeder-independent manner (embryonic pluripotent stem cells, ESCs) as described in protocol 1 (Fig. 1) before testing compounds of interest.
(§4) Fig. 1 Synopsis of experimental protocols. The impact of compounds on neural promoter activity (FLuc, Firefly Luciferase under the control of the Tα1 promoter), general promoter activity (RLuc, Renilla Luciferase under the control of the EF1α promoter), and amount of DNA (PI, propidium iodide fluorescence in cell homogenates) was investigated in undifferentiated mouse embryonic pluripotent stem cells (ESCs) and on ESC-derived neurons. Arrows indicate the time of measurement of the three parameters. a Protocol for testing compounds effects on ESCs. CGR8-2Luc cells were plated on gelatin-coated 96-well plates in maintenance medium (BHK21 medium containing 10 % FCS, L-glutamine, NEAA, P/S, and LIF). Twenty-four hours later, cells were exposed to compounds for forty-eight hours. b Protocol for testing compounds on ESC-derived neurons. CGR8-2Luc cells were co-cultured with MS5 cells to induce neural differentiation in DMEM medium containing 15 % KO-serum, NEAA, β-mercaptoethanol, and P/S. On day 5, cells were detached and seeded on polyornithine-coated plates in DMEM medium containing N2 supplement, bFGF, and P/S; compound exposure was from day 6 to day 8
as §1, with “To test compounds on ESC-derived neurons, neuronal differentiation was carried out as previously described (Suter et al. [2009]; Xu et al. [2014]). Briefly, CGR8-2Luc cells were seeded on irradiated bone marrow-derived stromal MS5 cells and cultivated for 4 days in DMEM medium containing 15 % Knock-out™ Serum Replacement, non-essential amino acids, beta-mercaptoethanol, and penicillin/streptomycin. At” for “At”
(§5) Luciferase activities were measured with a Dual-Luciferase™ Reporter system kit. CGR8-2Luc ES cells were lysed in 96-well plates according to the manufacturer’s instructions. Luminescence measurements were performed on a Fluostar Optima reader. Luminescence counts were expressed as percentage of promoter activity normalized by comparison with the control wells treated by DMSO.

[2] = tested on: Tubulin α1 (Tα1) promoter
Text: as §3, §4
as §1, with “To test compounds on ESC-derived neurons, neuronal differentiation was carried out as previously described (Suter et al. [2009]; Xu et al. [2014]). Briefly, CGR8-2Luc cells were seeded on irradiated bone marrow-derived stromal MS5 cells and cultivated for 4 days in DMEM medium containing 15 % Knock-out™ Serum Replacement, non-essential amino acids, beta-mercaptoethanol, and penicillin/streptomycin. At” for “At”
as §5

CGR8-2Luc ESCs = tested on: CGR8-2Luc ESCs
Text: as §4
as §1, with “To test compounds on ESC-derived neurons, neuronal differentiation was carried out as previously described (Suter et al. [2009]; Xu et al. [2014]). Briefly, CGR8-2Luc cells were seeded on irradiated bone marrow-derived stromal MS5 cells and cultivated for 4 days in DMEM medium containing 15 % Knock-out™ Serum Replacement, non-essential amino acids, beta-mercaptoethanol, and penicillin/streptomycin. At” for “At”
as §2, with “After measurement of luciferase activity, DNA quantity was determined by PI assay, as previously described (Xu et al. [2014]). PI was” for “PI was”
(§6) Lowest adverse effect level (LOAEL) was defined as the lowest tested concentrations that lead to a statistically significant decrease for a given read-out (FLuc, RLuc, and PI) compared to baseline. “Baseline” was not in all cases defined by untreated cells, but may also refer to, e.g., a state of increased activity due to low, non-toxic compound concentrations.

ESC-derived neurons = tested on: ESC-derived neurons
Text: as §4
as §1, with “To test compounds on ESC-derived neurons, neuronal differentiation was carried out as previously described (Suter et al. [2009]; Xu et al. [2014]). Briefly, CGR8-2Luc cells were seeded on irradiated bone marrow-derived stromal MS5 cells and cultivated for 4 days in DMEM medium containing 15 % Knock-out™ Serum Replacement, non-essential amino acids, beta-mercaptoethanol, and penicillin/streptomycin. At” for “At”
as §2, with “After measurement of luciferase activity, DNA quantity was determined by PI assay, as previously described (Xu et al. [2014]). PI was” for “PI was”
as §6

[3] = Table S1, three classes; ref per compound in the footnotes of Table S1; cited from earlier work
[4] = tested on: Tubulin α1 (Tα1) promoter; assay: cells
Text: as §3, §4
as §1, with “To test compounds on ESC-derived neurons, neuronal differentiation was carried out as previously described (Suter et al. [2009]; Xu et al. [2014]). Briefly, CGR8-2Luc cells were seeded on irradiated bone marrow-derived stromal MS5 cells and cultivated for 4 days in DMEM medium containing 15 % Knock-out™ Serum Replacement, non-essential amino acids, beta-mercaptoethanol, and penicillin/streptomycin. At” for “At”
as §5

[5] = cited from earlier work
[6] = reporter activity changes in the non-cytotoxic concentration range, highest possible number 4
[7] = ESC-derived neurons, 48 h exposure
[8] = undifferentiated ESCs, 48 h exposure
[9] = undifferentiated ESCs, 48 h exposure, lowest tested concentration with statistically significant decrease
[10] = undifferentiated ESCs, 48 h exposure, PI assay (cytotoxicity)
[11] = ESC-derived neurons, 48 h exposure, PI assay (cytotoxicity)

Row | SMILES | class based on clinical evidence for neurotoxicity [3] | Number of non-cytotoxic changes ([1]; mouse, 48 h) | LOAEL ESC EF1α (EF1α promoter; mouse) | LOAEL Neurons EF1α (EF1α promoter; mouse) | LOAEL ESC Tα1 ([2]; mouse) | LOAEL ESC DNA (CGR8-2Luc ESCs; mouse) | LOAEL Neurons DNA (ESC-derived neurons; mouse) | LOAEL Neurons Tα1 ([4]; mouse) | result in the dual luminescence reporter test system [1] | LOAEL Neurons EF1α (EF1α promoter; [7]) | LOAEL ESC EF1α (EF1α promoter; [8]) | LOAEL ESC Tα1 [2, 9] | LOAEL ESC DNA (CGR8-2Luc ESCs; [10]) | LOAEL Neurons DNA (ESC-derived neurons; [11]) | LOAEL Neurons Tα1 [4, 7] | other results
1 | O=C(O)c1cc[c]([Hg][Cl])cc1 [4-chloromercuric benzoic acid] | Possibly (developmental) |  |  |  |  |  |  |  |  |  |  |  |  |  |  | Number of non-cytotoxic changes [1]: 1; LOAEL ESC EF1α (EF1α promoter): 5 µM; LOAEL Neurons EF1α (EF1α promoter): 100 µM; LOAEL ESC Tα1 [2]: 5 µM; LOAEL ESC DNA (CGR8-2Luc ESCs): 5 µM; LOAEL Neurons DNA (ESC-derived neurons): 100 µM; LOAEL Neurons Tα1 [4]: 10 µM
2 | Nc1ccc(S(=O)(=O)Nc2ncccn2)cc1 [Sulfadiazine] | Possibly (developmental) | 0 | >50 µM | >50 µM | >50 µM | >50 µM | >50 µM | >50 µM |  |  |  |  |  |  |  | Concentration in humans ([5]; ref Zimmer et al. ([2014])): 320^k µM
3 | Clc1cc(Cl)c(-c2cc(Cl)c(Cl)cc2Cl)cc1Cl [PCB-153] | Well-established (developmental) |  |  |  |  |  |  |  |  |  |  |  |  |  |  | result in the dual luminescence reporter test system ([1]; ESCs and neurons, FLuc, RLuc, PI): potentially neurotoxic; Number of non-cytotoxic changes [1, 6]: 2; effect on general promoter activity in neurons (EF1α promoter): decreased; effect on cell number in neurons (ESC-derived neurons): without affecting the number of cells; Concentration in humans (human exposure concentration) ([5]; human exposure concentration, ref Zimmer et al. ([2014])): 0.0003-0.002^k (human exposure concentration) µM; effect on neural promoter activity in neurons [4]: decreased
4 | OC[C@@H](O)[C@@H](O)[C@H](O)[C@H](O)CO [D-mannitol] | Non-neurotoxic | 0 |  |  |  |  |  |  | negative | >50 µM | >50 µM | >50 µM | >50 µM | >50 µM | >50 µM | 
5 | CN(C)CCCN1c2ccccc2Sc2ccc(Cl)cc21 [Chlorpromazine] | Well-established (developmental) | 1 |  |  |  |  |  |  |  | 2 µM | 20 µM | 20 µM | 20 µM | 20 µM | 1 µM | 
6 | O=C1NS(=O)(=O)c2ccccc21 [Saccharin] | Non-neurotoxic | 0 | >50 µM | >50 µM | >50 µM | >50 µM | >50 µM | >50 µM | negative |  |  |  |  |  |  | Concentration in humans ([5]; ref Sweatman et al. ([1981])): 218^c µM
7 | [CH3][Sn]([CH3])([CH3])[Cl] [Trimethyltin chloride] | Well-established (developmental) |  |  |  |  |  |  |  |  | 0.05 µM | 5 µM | 5 µM | 5 µM | 5 µM | 5 µM | Number of non-cytotoxic changes [1, 6]: 1; EF1α promoter LOAEL in neurons (EF1α promoter; [7]): 50 nM
8 | CCC[C@H](NC(=O)[C@@H]1[C@H]2CCC[C@H]2CN1C(=O)[C@@H](NC(=O)[C@@H](NC(=O)c1cnccn1)C1CCCCC1)C(C)(C)C)C(=O)C(=O)NC1CC1 [Telaprevir] |  | 0 |  |  |  |  |  |  |  |  | 50 µM | 50 µM | 50 µM | 50 µM | 50 µM | LOAEL Neurons EF1α (EF1α promoter; mouse, 48 h): 50 µM; Concentration in humans ([5]; in vivo): 5.1^k µM
9 | O=C(O)c1cccnc1 [Nicotinic acid] | Non-neurotoxic | 0 | >50 µM | >50 µM | >50 µM | >50 µM | >50 µM | >50 µM | negative |  |  |  |  |  |  | 
